Where two headings read alike, the source gives them in different places.
Legend:
human PNR (NR2E3) LBD = biological target: T1, human PNR (NR2E3) LBD (Homo sapiens, UniProt Q9Y5X4); test: GAL4-PNR LBD luciferase transactivation assay in HeLa cells; type: cell-based; settings: 10 µM, 24 h
T1 construct: expressed in transfected cells; host or cells: HeLa
T1 sequence (Q9Y5X4 192-410): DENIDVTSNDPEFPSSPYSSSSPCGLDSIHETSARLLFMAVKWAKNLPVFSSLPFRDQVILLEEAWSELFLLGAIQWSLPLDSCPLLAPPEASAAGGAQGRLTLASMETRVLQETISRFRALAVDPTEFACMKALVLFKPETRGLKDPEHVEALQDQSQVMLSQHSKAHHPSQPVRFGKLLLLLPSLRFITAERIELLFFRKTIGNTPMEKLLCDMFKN
Protocol: For the transactivation assays involving human PNR (Photoreceptor cell-specific Nuclear Receptor, NR2E3) LBD, we used an already described pBIND-PNR LBD (residues 192–410, [37]) plasmid (gift from Dr. H. Eric Xu, Van Andel Institute). The transient co-transfections of HeLa cells with vectors encoding either Gal4DBD or pBIND-PNR LBD fusion (both at 50 ng/well), pGL4.35 reporter gene (200 ng/well) and renilla luciferase gene (50 ng/well, internal control) were performed in batches of 10^5 cells seeded into 12-well tissue culture plates. Twenty-four hours after the transfections, cells were treated with either DMSO (0.1%, control) or compounds ccrp1, ccrp2 or ccrp3 at 10 µM. Following 24 h incubation, luciferase activities in each well were assessed as described above. Cells transfected with Gal4 DBD vector served as a control for PNR independent effects.

human RXRα LBD = biological target: T2, human RXRα LBD (Homo sapiens, UniProt P19793); test: GAL4 DBD-RXRα LBD luciferase transactivation assay in HeLa cells; type: cell-based; settings: 10 µM, 24 h, alone or in competition with 9-cis retinoic acid 100 nM
T2 construct: expressed in transfected cells; host or cells: HeLa
T2 sequence (P19793 225-462): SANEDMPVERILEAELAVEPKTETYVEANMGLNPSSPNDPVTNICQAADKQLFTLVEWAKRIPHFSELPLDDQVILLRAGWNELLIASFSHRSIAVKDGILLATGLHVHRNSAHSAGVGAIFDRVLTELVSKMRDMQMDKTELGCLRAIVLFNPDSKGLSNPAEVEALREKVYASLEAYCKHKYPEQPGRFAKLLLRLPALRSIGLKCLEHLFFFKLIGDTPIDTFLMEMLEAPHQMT
Protocol: We cloned human RXRα LBD (residues 225–462) in the vector pBIND as described above. Transient co-transfections of HeLa cells with vectors encoding either Gal4DBD or Gal4 DBD-RXRα LBD fusion (both at 10 ng/well), pGL4.35 reporter gene (200 ng/well) and renilla luciferase gene (10 ng/well, internal control) were performed in batches of 10^5 cells seeded into 12-well tissue culture plates. The transfections were done using TransFectin Lipid Reagent (Biorad). Three hours after the transfections, cells were treated with either DMSO (0.1%, control) or compounds ccrp1, ccrp2 or ccrp3 at 10 µM, in the absence or the presence of 9-cis retinoic acid (RA, 100 nM). Following 24 h incubation, luciferase activities in each well were assessed as described above. Cells transfected with Gal4 DBD vector served as a control for RXR independent effects.

COUP-TFII LBD = biological target: T3, COUP-TFII LBD (Homo sapiens, UniProt P24468); test: GAL4 DBD-COUP-TFII LBD luciferase transactivation assay in HeLa cells; type: cell-based; settings: 10 µM, 24 h, alone or in competition with 9-cis retinoic acid 5 µM
T3 construct: expressed in transfected cells; host or cells: HeLa
T3 sequence (P24468 177-403 limits assumed): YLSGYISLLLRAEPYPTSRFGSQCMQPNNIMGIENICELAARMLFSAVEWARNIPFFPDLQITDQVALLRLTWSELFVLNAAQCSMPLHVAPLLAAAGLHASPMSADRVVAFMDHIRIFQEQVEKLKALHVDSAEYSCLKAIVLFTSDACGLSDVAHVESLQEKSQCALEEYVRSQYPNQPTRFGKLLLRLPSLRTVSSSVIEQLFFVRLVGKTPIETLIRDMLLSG
Protocol: For the transactivation assays with the GAL4 DBD-COUP-TFII LBD plasmid ([28], gift from Dr. H. Eric Xu, Van Andel Institute), we transiently transfected in batches of 10^5 HeLa cells seeded into 12-well tissue culture plates vectors encoding either Gal4 DBD or Gal4 DBD-COUP-TFII LBD fusion (both at 100 ng/well), pGL4.35 reporter gene (200 ng/well) and renilla luciferase gene (100 ng/well, internal control). At 24 h after the transfections, cells were treated with either DMSO (0.1%, control) or compounds ccrp1, ccrp2 or ccrp3 at 10 µM, in the absence or the presence of 9-cis retinoic acid (RA, 5 µM). Following 24 h incubation, luciferase activities in each well were assessed as described above. Cells transfected with Gal4 DBD vector served as a control for COUP-TFII independent effects.

TLX LBD [1] = biological target: T4, TLX LBD (Homo sapiens, UniProt Q9Y466); test: GAL4-TLX LBD luciferase transactivation assay in HeLa cells; type: cell-based; parameters: expressed in transfected cells; host or cells: HeLa
T4 sequence (Q9Y466 187-385): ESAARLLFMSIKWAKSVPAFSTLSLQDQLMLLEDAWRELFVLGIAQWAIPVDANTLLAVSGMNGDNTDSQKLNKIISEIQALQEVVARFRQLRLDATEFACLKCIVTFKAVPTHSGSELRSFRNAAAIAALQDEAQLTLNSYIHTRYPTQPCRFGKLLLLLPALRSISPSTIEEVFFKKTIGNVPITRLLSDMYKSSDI
Protocol: The luciferase reporter pGL4.35 [luc2P/9XGAL4UAS/Hygro] vector was obtained from Promega. pBIND-TLX LBD was fully sequenced (ACGT, Inc.).
HeLa cells were maintained in D-MEM High Glucose (Hyclone) supplemented with 10% charcoal:dextran stripped FBS (Hyclone) and 1x Pen/Strep antibiotics (Life Technologies). Transient transfections were carried out in batches on 100,000 cells seeded into 12-well tissue culture plates. The co-transfections were performed using the TransFectin Lipid reagent (Bio-Rad) with approximately 10 ng/well of Gal4 DBD (gift from Phuong Nguyen, Fletterick Laboratory, UCSF) or GAL4-TLX LBD, 10 ng/well of renilla luciferase gene (Promega) for internal control and 200 ng/well of pGL4.35 reporter gene (containing an upstream Gal4 Upstream Activator Sequence and the luciferase gene, Promega). Approximately, 3 h after transfections, cells were treated with compounds of interest at different concentrations, or solvent (DMSO, 0.1%) in DMEM containing no fetal bovine serum or antibiotics. After a 16-h incubation, luciferase activities were assessed using Dual Luciferase assay reagent (Promega). Luciferase activities were calculated by normalizing firefly luciferase to renilla luciferase signal. […] Cells transfected with Gal4 DBD vector served as a control for TLX independent effects.
All measurements were performed in triplicates and repeated in three independent experiments. Prism 6 was used to calculate EC50.

TLX LBD [2] = biological target: T4, TLX LBD; test: Differential scanning fluorimetry (DSF) on purified TLX LBD;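 also: thermal unfolding followed by Sypro-Orange fluorescence (excitation 465 nm, emission 610 nm) in 384-well plates, Tm taken from the first derivative of the denaturation curve, duplicate samples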; type: binding; parameters: cDNA fragments encoding human TLX LBD (a.a. 187–385) were cloned; His6 followed by TEV protease cleavage site (N); made in house; host or cells: E. coli BL21 (DE3) star; settings: compound 500 µM; reference Tm 58.8±0.3°C with 5% DMSO
Protocol: Protein stability was assessed with DSF in absence or presence of test compounds in a LightCycler 480 II qRT-PCR Detection System (Roche) in 384-well format. Sypro-Orange dye (Life Technologies) was used to monitor fluorescence, with filters for fluorescence excitation at 465 nm and for fluorescence emission at 610 nm. […] Each compound was tested in duplicates. The melting temperature (Tm) for each sample was deduced by the ThermoQ Analytical software (HMRI) from the first derivative of the corresponding denaturation curve generated by the LightCycler 480 software. […] All DSF-based analyses were performed using freshly purified protein.

[3] = HeLa cells, 16 h treatment, read-out: EC50 for enhancement of TLX transcriptional repression

Structure (SMILES) | effect on PNR transcriptional activity (human PNR (NR2E3) LBD) | effect on RXRα luciferase activity (human RXRα LBD) | effect on COUP-TFII luciferase activity (COUP-TFII LBD) | EC50 (TLX LBD [1]; [3]) [nM] | melting temperature (Tm) of TLX LBD in presence of compound (TLX LBD [2]) [°C] | EC50 (TLX LBD [1]) [nM]
CC(C)c1c(CN(C)C(C)Cc2ccccc2)n(C)n(-c2ccccc2)c1=O (stereo not drawn) [ccrp1, Famprofazone] | None of the compounds affected PNR transcriptional activity | No effect on luciferase activity was detected | No effect on luciferase activity was detected | 9200 ± 1000 | 53.04±0.3 | 
Cc1cc(C(=O)N2CCN(C(c3ccccc3)c3ccccc3)CC2)nn1C [ccrp2, 1-(1,5-dimethylpyrazole-3-carbonyl)-4-(diphenylmethyl)piperazine] | None of the compounds affected PNR transcriptional activity | No effect on luciferase activity was detected | No effect on luciferase activity was detected |  | 52.49±1.1 | 1000 ± 300
CC(=O)[C@H]1CC[C@H]2[C@@H]3C=CC4=CC(=O)CC[C@@]4(C)[C@@H]3CC[C@]12C [ccrp3, Dydrogesterone] | None of the compounds affected PNR transcriptional activity | No effect on luciferase activity was detected | No effect on luciferase activity was detected | 250 ± 100 | 55.78±0.3 | 

Reference: article PMC4060991, “The Human Orphan Nuclear Receptor Tailless (TLX, NR2E1) Is Druggable” (PLoS ONE, 2014)
